From patent US20080171706A1, “Anti-Adhesive Compounds to Prevent and Treat Bacterial Infections” (priority 2004, published 2008)
pKd: −log10 of the molar value. Where two headings read alike, the source gives them in different places.

Tests used:
Assay in all cases: biochemical
FimHtrJ96 = biological target: T1, FimHtrJ96 (Escherichia coli, UniProt P08191); assay type: binding, uropathogenic E. coli strain J96; settings: for ΔG° J96: Table 3, calculated from KD
T1 construct: coding for the lectin domain of FimH (residues 1-158) with a C-terminal 6-histidine tag; made in house; host or cells: E. coli HB101 (lacking the fim operon), periplasmic extract, plasmid pPKL241
Description: To measure the dissociation constant for FimH:alkyl or aryl-mannoside binding, two different binding assays were developed. The first binding assay uses [^3H]-mannose. The amount of radioactively labeled mannose bound to FimHtrJ96 was measured at six different concentrations of [^3H]-mannose, and a hyperbolic curve fitted to the resulting data (FIG. 1A). FimHtrJ96 corresponds to the carbohydrate (mannose) binding domain of FimH from the uropathogenic E. coli strain J96. The dissociation equilibrium constant was determined from this graph at the concentration of mannose […], which corresponds to occupation of half of the binding sites.
Surface Plasmon Resonance measurements were performed on a Biacore3000™. In a first experiment, the kinetic constants and maximal binding were determined for the FimH-antibody interaction. Next, a fixed concentration of FimH (close to the KD of the FimH-antibody interaction) in combination with varying concentrations of carbohydrate, were used to determine the dissociation equilibrium constant of the FimH-saccharide interaction in a competition experiment. Every measurement was repeated at least twice, including testing the variation between different protein and saccharide batches.
To eliminate the possibility of different binding strength for full length FimH and FimHtrJ96, the binding of alpha-D-mannose to FimC:FimH complex was also measured. […] The inhibition of [^3H]-mannose binding was used in a displacement assay to determine the dissociation constant for a synthetic butyl mannoside by measuring the amount of [^3H]-mannose bound to the protein in the presence of increasing amounts of the inhibitor (FIG. 1B). […] To investigate the effect of sequential addition of methyl groups to the O1 oxygen of D-mannose, a series of alkyl mannosides were synthesized and the dissociation constants determined using the [^3H]-mannose displacement assay and by surface plasmon resonance (Table 1).
Surface Plasmon Resonance measurements were performed on a Biacore3000™. The Fab fragments of a monoclonal antibody against FimH were covalently immobilised via lysines at 1000 Resonance Units (1000 pg ligand/mm^2) in flowcell Fc2 on a CM5 biasensor chip (BIAapplications Handbook, Biacore AB, Uppsala, Sweden). Immobilisation buffer was 100 mM NaAc pH 5.0 with 100 mM NaCl. The reference flowcell Fc1 was left blank.
Binding of FimH to the immobilized antibody was measured with a Biacore 3000 instrument in running buffer (phosphate buffered saline with 0.005% surfactant P20 and 3 mM EDTA), on both flowcells Fc1 and Fc2 simultaneously, at a flow rate of 30 μl/min and at 25° C. Complete dissociation of FimH was done with running buffer before starting a new binding cycle. For all measurements, the association time was 3 minutes, the dissociation time was 30 min. All binding cycles were performed in duplicate, including a zero concentration cycle of FimH (injection of running buffer).
In a first experiment, the kinetic constants, ka and kd, and the maximal binding Rmax, were determined for the FimH-antibody interaction (FimH concentrations (nM): 2000, 1000, 500, 250, 125, 62.5, 31.25, 15.625, 7.818, 3.911, 1.957, 0). All analyses were performed with the BIAeval software. A Langmuir binding isotherm with a 1:1 stoichiometry was fitted to the data, from which the kinetic constants and maximal binding were obtained.
In the next experiment, samples containing a fixed concentration of FimH (close to the KD of the FimH-antibody interaction) in combination with varying concentrations of saccharide, were used to determine the dissociation constant of the FimH-saccharide interaction in a competition experiment. First, ten-fold dilutions of the saccharide solution were used to determine the concentration range for binding of the saccharide to FimH.

FimHtrCl#4 = biological target: T2, FimHtrCl#4 (Escherichia coli, UniProt P08191, G94E/N91S/S99N/V48A); assay type: binding, E. coli UPEC (Cl#4) strain; settings: for pKd: Table 3, [3H]-mannose displacement assay (mannose measured directly), read-out: KD CI#4; for ΔG° CI#4: Table 3, calculated from KD
T2 construct: coding for the lectin domain of FimH (residues 1-158) with a C-terminal 6-histidine tag; made in house; host or cells: E. coli HB101 (lacking the fim operon), periplasmic extract, plasmid pMAS146
Description: (§1) To investigate if these variations reflect differences in sugar binding at the molecular level, the dissociation constants of a series of mannosides for the FimH lectin domain from a fecal (F18) and from a UPEC (Cl#4) strain were determined. […] For comparison, binding to FimHtrJ96 was also investigated. Both F18 and Cl#4 FimH lectin domains were cloned, expressed, and purified in the same way as FimHtrJ96 (Schembri et al., 2000). These two lectin domains differ from the lectin domain of FimHJ96 by substitutions Val27Ala, Asn70Ser and Ser78Asn. In addition, FimHCl#4 differs from the other two variants by a Gly73Glu substitution. […] Five different tri-mannosides corresponding to high-mannose substructures were synthesized, and their binding to FimHtrJ96, FimHtrF18 and FimHtrCl#4 measured using our [^3H]-mannose displacement assay (Table 3). Alpha-D-mannose binding was first directly measured for each of the FimH variants.
(§2) [^3H]alpha-D-mannose was obtained from Amersham. […] Syntheses of tri-mannosides was as reported earlier by Oscarson and co-workers (1993). Weighed amounts of tri-mannosides were dissolved in double distilled water to give stock solutions of 0.87 M man-(1,2)-man-(1,2)-man, 0.25 M man-(1,2)-man-(1,3)-man, 0.27 M man-(1,2)-man-(1,6)-man, 0.30 M man-(1,3)-man-(1,6)-man, 0.13 M man-(1,6)-man-(1,6)-man. Similarly, alkyl mannosides were dissolved in double distilled water to give stock solutions of 100 mM methyl mannoside, 59.8 mM ethyl mannoside, 45.9 mM propyl mannoside, 51.9 mM butyl mannoside, 17.3 mM pentyl mannoside, 20.8 mM hexyl mannoside, 15.3 mM heptyl mannoside, 15.2 mM octyl mannoside. pNPalphaMan and MeUmbalphaMan (6 mg each) were dissolved in 20 μl DMSO and diluted to 20 mM using double distilled water. Binding experiments were performed using six different concentrations of [^3H]-alpha-D-mannose (final concentrations 43.5 μM, 29.0 μM, 19.3 μM, 12.9 μM, 8.6 μM, 5.7 μM). FimHtrJ96 obtained by growing bacteria in minimal medium was used in all binding experiments. 180 μl protein at a concentration of about 500 nM was mixed with 20 μl of the radioactive ligand, and incubated at 37° C. for 20 min. To separate free ligand from bound, the mixture was rapidly filtrated through a Protran BA 85 Cellulose-nitrate filter (Schleicher & Schuell, Dassel, Germany), and washed once with 1 ml of ice-cold 1× PBS (phosphate buffered saline). Filter-bound radioactivity was measured by scintillation spectrometry within 24 hours. The displacement experiments were performed using six different concentrations (final concentrations in the range 0.0˜43.5 μM) of the inhibitor, in the presence of 43.5 μM [^3H]-alpha-D-mannose. 20 μl radioactive ligand, 20 μl inhibitor at decreasing concentrations, and 160 μl protein (500 nM) were mixed, and the experiments performed as above. All experiments were performed in duplicates. For determination of KD for α-D-mannose, a hyperbolic curve (y=P1x/(P2+x), where P2=KD) was fitted to the data. For the displacement experiments, the curve y=P1/(P2+x), where P2 is the concentration of the inhibitor displacing 50% of the labelled ligand, [I]0.5 was used instead. To calculate the inhibitor dissociation constant (KI) the Cheng & Prusoff equation (KI=[I]0.5/([L]/KL+1); KL is the constant of dissociation for the ligand) (Cheng and Prusoff, 1973), was used when both the concentration of the radioactive ligand (L) and the displacing agent (I) are in excess over the protein (LT>>PT;IT>>PT, T indicates total concentration). […] A plot of IT/((1−Y)*(LT/KL)−Y) against 1/Y gives a straight line with a slope of KI.

FimHtrF18 = biological target: T3, FimHtrF18 (Escherichia coli, UniProt P08191, N91S/S99N/V48A); assay type: binding, E. coli fecal (F18) strain; settings: for pKd: Table 3, [3H]-mannose displacement assay (mannose measured directly), read-out: KD F18; for ΔG° F18: Table 3, calculated from KD
T3 construct: coding for the lectin domain of FimH (residues 1-158) with a C-terminal 6-histidine tag; made in house; host or cells: E. coli HB101 (lacking the fim operon), periplasmic extract, plasmid pPKL316
Description: as §1, §2

[1] = displacement assay, FimHtrJ96, read-out: KD
[2] = quoted in b67 for comparison with docking, method not given, read-out: experimentally determined dissociation constant Kd
[3] = Table 3, [3H]-mannose displacement assay (mannose measured directly), read-out: KD J96

T1 sequence (P08191 22-179): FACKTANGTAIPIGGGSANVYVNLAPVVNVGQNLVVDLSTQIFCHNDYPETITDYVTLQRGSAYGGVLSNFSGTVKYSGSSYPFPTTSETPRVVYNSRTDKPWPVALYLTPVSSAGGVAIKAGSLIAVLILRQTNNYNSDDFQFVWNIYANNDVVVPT
T3 sequence (P08191 22-179 V48A/N91S/S99N): as the sequence (P08191 22-179) above, with V27A, N70S, S78N counted along it
T2 sequence (P08191 22-179 V48A/N91S/G94E/S99N): as the sequence (P08191 22-179) above, with V27A, N70S, G73E, S78N counted along it

Structure (SMILES): OC[C@H]1O[C@H](O)C[C@@H](O)[C@@H]1O [2-deoxy α-D-mannose]
- pKd (FimHtrJ96): 3.52
- ΔG° (FimHtrJ96; Table 2, calculated from KD): -4.8 kcal/mol

Structure (SMILES): CCCCO[C@H]1O[C@H](CO)[C@@H](O)[C@H](O)[C@@H]1O [Butyl man, butyl mannoside]
- pKd (FimHtrJ96; Table 1, O1 alkyl and aryl mannosides, SPR and displacement binding experiments, read-out: KD): 6.82
- ΔG° (FimHtrJ96; Table 1, calculated from KD): -9.3 kcal/mol
- pKd (FimHtrJ96; [3H]-mannose binding or displacement assay, FimHtrJ96, read-out: KD): 6.82
- binding strength relative to D-mannose (times stronger) (FimHtrJ96; butyl mannoside vs D-mannose, displacement assay): around 15 times

Structure (SMILES): CCO[C@H]1O[C@H](CO)[C@@H](O)[C@H](O)[C@@H]1O [Ethyl man, ethyl mannoside]
- pKd (FimHtrJ96): 5.92
- ΔG° (FimHtrJ96; Table 1, calculated from KD): -8.1 kcal/mol

Structure (SMILES): CCCCCCCO[C@H]1O[C@H](CO)[C@@H](O)[C@H](O)[C@@H]1O [Heptyl man, heptyl α-D-mannopyranoside]
- pKd (FimHtrJ96): 8.30
- ranking of binders (FimHtrJ96; SPR and displacement binding experiments, Table 1 series): best binder
- ΔG° (FimHtrJ96; Table 1, calculated from KD): -11.3 kcal/mol

Structure (SMILES): CCCCCCO[C@H]1O[C@H](CO)[C@@H](O)[C@H](O)[C@@H]1O [Hexyl man, hexyl mannoside]
- pKd (FimHtrJ96): 8.00
- ΔG° (FimHtrJ96; Table 1, calculated from KD): -10.9 kcal/mol

Structure (SMILES): CO[C@H]1O[C@H](CO)[C@@H](O)[C@H](O)[C@@H]1O [Methyl man, Methyl mannoside]
- pKd (FimHtrJ96): 5.66
- ΔG° (FimHtrJ96; Table 1, calculated from KD): -7.7 kcal/mol

Structure (SMILES): CCCCCCCCO[C@H]1O[C@H](CO)[C@@H](O)[C@H](O)[C@@H]1O [Octyl man, octyl mannoside]
- pKd (FimHtrJ96): 7.66
- ΔG° (FimHtrJ96; Table 1, calculated from KD): -10.4 kcal/mol

Structure (SMILES): CCCCCO[C@H]1O[C@H](CO)[C@@H](O)[C@H](O)[C@@H]1O [Pentyl man, pentyl mannoside]
- pKd (FimHtrJ96): 7.60
- ΔG° (FimHtrJ96; Table 1, calculated from KD): -10.4 kcal/mol

Structure (SMILES): CCCO[C@H]1O[C@H](CO)[C@@H](O)[C@H](O)[C@@H]1O [Propyl man, propyl mannoside]
- pKd (FimHtrJ96): 6.52
- ΔG° (FimHtrJ96; Table 1, calculated from KD): -8.9 kcal/mol

Structure (SMILES): Cc1cc(=O)oc2cc(O[C@H]3O[C@H](CO)[C@@H](O)[C@H](O)[C@@H]3O)ccc12 [Umbelliferyl man, 4-Methylumbelliferyl α-mannoside]
- ΔG° (FimHtrJ96; Table 1, calculated from KD): -10.8 kcal/mol
- pKd (FimHtrJ96; [1]): 7.92
- pKd (FimHtrJ96; [2]): 7.70

Structure (SMILES): O=C(CO)[C@@H](O)[C@H](O)[C@H](O)CO [fructose]
- pKd (FimHtrJ96): 4.51
- ΔG° (FimHtrJ96; Table 2, calculated from KD): -6.1 kcal/mol
- affinity relative to mannose (times lower) (FimHtrJ96; fructose vs mannose, FimH): 15 times

Structure (SMILES): O=C[C@H](O)[C@@H](O)[C@@H](O)[C@H](O)CO [galactose]
- pKd (FimHtrJ96): 1.00
- ΔG° (FimHtrJ96; Table 2, calculated from KD): -1.4 kcal/mol

Structure (SMILES): OC[C@H]1O[C@H](O[C@@H]2[C@@H](O[C@@H]3C(O)O[C@H](CO)[C@@H](O)[C@@H]3O)O[C@H](CO)[C@@H](O)[C@@H]2O)[C@@H](O)[C@@H](O)[C@@H]1O (stereo partly shown) [man-(1,2)-man-(1,2)-man]
- pKd (FimHtrJ96; [3]): 5.80
- ΔG° J96 (FimHtrJ96): -8.2 kcal/mol
- pKd (FimHtrCl#4): 5.40
- ΔG° CI#4 (FimHtrCl#4): -7.7 kcal/mol
- pKd (FimHtrF18): 5.49
- ΔG° F18 (FimHtrF18): -7.8 kcal/mol

Structure (SMILES): OC[C@H]1O[C@H](O[C@@H]2[C@@H](O[C@H]3[C@H](O)[C@@H](CO)OC(O)[C@H]3O)O[C@H](CO)[C@@H](O)[C@@H]2O)[C@@H](O)[C@@H](O)[C@@H]1O (stereo partly shown) [man-(1,2)-man-(1,3)-man]
- pKd (FimHtrJ96; [3]): 5.74
- ΔG° J96 (FimHtrJ96): -8.1 kcal/mol
- pKd (FimHtrCl#4): 5.44
- ΔG° CI#4 (FimHtrCl#4): -7.7 kcal/mol
- pKd (FimHtrF18): 5.52
- ΔG° F18 (FimHtrF18): -7.8 kcal/mol

Structure (SMILES): O=[N+]([O-])c1ccc(OC2O[C@H](CO)[C@@H](O)[C@H](O)[C@@H]2O)cc1 (stereo partly drawn) [p-Nitrophenyl man, p-Nitrophenyl α-mannoside]
- ΔG° (FimHtrJ96; Table 1, calculated from KD): -10.3 kcal/mol
- pKd (FimHtrJ96; [1]): 7.59
- pKd (FimHtrJ96; [2]): 7.36

Structure (SMILES): OC[C@H]1O[C@@](CO)(O[C@H]2O[C@H](CO)[C@@H](O)[C@H](O)[C@H]2O)[C@@H](O)[C@@H]1O [sucrose]
- pKd (FimHtrJ96): 1.89
- ΔG° (FimHtrJ96; Table 2, calculated from KD): -2.6 kcal/mol
